Results from patent US20230043863A1, “HETEROAROMATIC DERIVATIVES FOR USE AS REGULATOR, PREPARATION METHOD THEREFOR AND USE THEREOF” (JIANGSU HANSOH PHARMACEUTICAL GROUP CO., LTD., priority 2018, published 2023).

Columns and labels:
JAK1 = JAK1 (Homo sapiens, UniProt P23458); test: JAK kinase activity inhibition, TR-FRET (JAK1); assay type: biochemical; conditions: TR-FRET kinase assay
Summary of the method: (§1)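 Steps: compound dilutions added; JAK kinase (0.1-20 nM) in HEPES/MgCl2 buffer added; peptide substrate and ATP mix started the reaction, 0.5-5 h at room temperature; EDTA and labeled antibody added, 1-24 h further. IC50 derived from 620/665 nm signals by four-parameter nonlinear fitting.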

JAK2 = JAK2 (Homo sapiens, UniProt O60674); test: JAK kinase activity inhibition, TR-FRET (JAK2); assay type: biochemical; conditions: TR-FRET kinase assay
Experimental: (§2) Experimental objective: The objective of this test is to test the inhibitory effect of the compound on JAK kinase activity.
(§3) Experimental method: the fluorescence resonance energy transfer (TR-FRET) method was used to test the inhibitory effect of the compound on JAK kinase activity, and the half inhibitory concentration IC50 of the compound on JAK kinase activity was obtained.
(§4) Kinase reaction was carried out in a white 384-well plate (PerkinElmer). 1-5 μL of different concentrations of the compound diluted with DMSO and ddH2O was added into each well, and 1-5 μL of the corresponding solvent was added to the positive control wells, followed by addition of 0.1-20 nM JAK kinase solution diluted with 1-5 μL of kinase buffer (HEPES 50-250 mM, MgCl2 5-20 mM, etc.) was added to each well. 1-5 μL of kinase buffer was added to the negative control well. 1-5 μL of substrate mixture containing peptide substrate and ATP was added. The plate was incubated at room temperature for 0.5-5 hours. […], EDTA and detection solution containing labeled antibody was added, and then the plate was incubated at room temperature for another 1-24 hours. The fluorescence signal value at about 620 nm and 665 nm of each well was measured by BioTek Synergy H1 plate reader, and the inhibition rate was calculated by the fluorescence signal value. According to the inhibition rate of different concentrations, the IC50 of the compound was obtained by curve fitting.
(§5) The percentage inhibition data of the wells treated with the compound was calculated with the positive control wells (DMSO control wells) and negative control wells (no kinase added) on the plate {% inhibition rate=100-[(test compound value-negative control value)]/(Positive control value-negative control value)×100}. IC50 value was calculated by using GraphPad prism to fit the data of different concentrations and corresponding percentage inhibition rates to a 4-parameter non-linear logic formula.

JAK3 = molecular target: T1, JAK3 (Homo sapiens, UniProt P52333); test: JAK kinase activity inhibition, TR-FRET (JAK3); assay type: biochemical; conditions: TR-FRET kinase assay
T1 sequence (P52333 1-1124): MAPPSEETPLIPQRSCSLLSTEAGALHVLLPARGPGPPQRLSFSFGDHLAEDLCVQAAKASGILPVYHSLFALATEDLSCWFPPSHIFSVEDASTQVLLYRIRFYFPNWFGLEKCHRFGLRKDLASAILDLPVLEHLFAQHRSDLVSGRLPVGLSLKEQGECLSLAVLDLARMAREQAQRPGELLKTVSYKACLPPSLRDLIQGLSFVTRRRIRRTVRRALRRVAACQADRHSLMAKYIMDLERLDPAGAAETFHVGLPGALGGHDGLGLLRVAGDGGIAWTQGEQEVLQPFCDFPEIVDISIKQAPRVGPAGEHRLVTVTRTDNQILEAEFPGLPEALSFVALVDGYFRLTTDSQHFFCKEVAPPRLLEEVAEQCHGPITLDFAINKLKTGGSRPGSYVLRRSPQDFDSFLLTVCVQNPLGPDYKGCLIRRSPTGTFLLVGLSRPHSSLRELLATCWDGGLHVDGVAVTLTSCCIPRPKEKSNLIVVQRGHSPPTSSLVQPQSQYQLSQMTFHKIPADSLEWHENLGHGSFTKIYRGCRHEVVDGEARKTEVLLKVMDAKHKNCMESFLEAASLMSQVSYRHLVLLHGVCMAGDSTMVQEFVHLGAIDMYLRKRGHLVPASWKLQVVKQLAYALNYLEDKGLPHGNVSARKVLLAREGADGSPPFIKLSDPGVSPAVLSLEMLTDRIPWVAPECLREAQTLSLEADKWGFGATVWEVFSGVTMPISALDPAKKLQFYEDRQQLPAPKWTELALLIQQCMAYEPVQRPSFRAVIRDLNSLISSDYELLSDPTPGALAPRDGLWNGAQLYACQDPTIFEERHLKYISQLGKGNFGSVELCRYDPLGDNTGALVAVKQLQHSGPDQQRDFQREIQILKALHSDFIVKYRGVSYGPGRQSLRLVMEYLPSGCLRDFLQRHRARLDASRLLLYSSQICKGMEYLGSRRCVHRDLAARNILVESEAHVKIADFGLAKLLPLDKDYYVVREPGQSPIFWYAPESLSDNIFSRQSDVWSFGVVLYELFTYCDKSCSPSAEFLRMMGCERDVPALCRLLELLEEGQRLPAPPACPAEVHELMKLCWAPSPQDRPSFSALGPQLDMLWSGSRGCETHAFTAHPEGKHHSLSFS
Experimental: as §2, §3, §4, §5

TYK2 = TYK2 (Homo sapiens, UniProt P29597); test: JAK kinase activity inhibition, TR-FRET (TYK2); assay type: biochemical; conditions: TR-FRET kinase assay
Summary of the method: as §1

[1] = test system: JAK-STAT signal pathway of U266 cells; test: Inhibition of cellular JAK-STAT signal pathway (STAT3 phosphorylation) in U266 cells; assay type: cell-based, human; conditions: Homo sapiens, U-266, INF-a 1000 U/mL stimulation
Summary of the method: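 U266 cells (100-300 K/well) preincubated 2 h at room temperature with serially diluted compound, then stimulated 15 min with IFN-α at 1000 U/mL final. After lysis, STAT3 phosphorylation read by LANCE Ultra TR-FRET (Eu antibody 0.5 nM, ULight antibody 5 nM, overnight) at 665 nm; IC50 from 4-parameter fit of inhibition versus DMSO and negative controls.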

Chain of JAK1 (P23458 whole entry): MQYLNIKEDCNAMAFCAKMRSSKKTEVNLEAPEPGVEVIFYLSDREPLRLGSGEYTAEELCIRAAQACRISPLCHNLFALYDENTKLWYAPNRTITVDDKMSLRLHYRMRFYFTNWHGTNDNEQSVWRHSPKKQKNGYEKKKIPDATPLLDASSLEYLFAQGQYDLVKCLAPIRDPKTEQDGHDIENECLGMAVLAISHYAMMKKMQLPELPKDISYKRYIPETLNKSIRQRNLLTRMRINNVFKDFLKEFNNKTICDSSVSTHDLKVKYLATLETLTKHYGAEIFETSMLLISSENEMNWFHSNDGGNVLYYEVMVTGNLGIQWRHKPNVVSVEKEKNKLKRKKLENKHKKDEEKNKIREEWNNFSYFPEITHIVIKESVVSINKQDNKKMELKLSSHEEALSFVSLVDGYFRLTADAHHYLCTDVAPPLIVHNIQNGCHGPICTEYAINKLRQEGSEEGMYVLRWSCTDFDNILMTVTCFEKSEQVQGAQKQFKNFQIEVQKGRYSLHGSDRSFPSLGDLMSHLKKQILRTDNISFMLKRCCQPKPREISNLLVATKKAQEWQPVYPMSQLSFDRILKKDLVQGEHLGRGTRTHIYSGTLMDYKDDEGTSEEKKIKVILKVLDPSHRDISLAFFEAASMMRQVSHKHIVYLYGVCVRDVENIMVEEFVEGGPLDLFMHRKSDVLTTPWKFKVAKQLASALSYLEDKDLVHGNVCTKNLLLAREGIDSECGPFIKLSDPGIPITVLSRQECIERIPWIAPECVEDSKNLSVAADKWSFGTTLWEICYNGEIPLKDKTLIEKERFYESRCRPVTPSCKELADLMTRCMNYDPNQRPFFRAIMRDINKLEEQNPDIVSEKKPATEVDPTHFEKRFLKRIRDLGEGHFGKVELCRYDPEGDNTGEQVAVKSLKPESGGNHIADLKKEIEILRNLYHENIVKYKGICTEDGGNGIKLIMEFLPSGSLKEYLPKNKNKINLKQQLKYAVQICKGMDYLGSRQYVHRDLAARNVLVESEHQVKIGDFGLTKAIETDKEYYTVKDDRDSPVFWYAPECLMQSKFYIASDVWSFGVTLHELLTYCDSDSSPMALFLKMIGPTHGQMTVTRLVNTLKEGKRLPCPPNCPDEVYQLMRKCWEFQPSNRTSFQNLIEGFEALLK
Chain of JAK2 (O60674 whole entry): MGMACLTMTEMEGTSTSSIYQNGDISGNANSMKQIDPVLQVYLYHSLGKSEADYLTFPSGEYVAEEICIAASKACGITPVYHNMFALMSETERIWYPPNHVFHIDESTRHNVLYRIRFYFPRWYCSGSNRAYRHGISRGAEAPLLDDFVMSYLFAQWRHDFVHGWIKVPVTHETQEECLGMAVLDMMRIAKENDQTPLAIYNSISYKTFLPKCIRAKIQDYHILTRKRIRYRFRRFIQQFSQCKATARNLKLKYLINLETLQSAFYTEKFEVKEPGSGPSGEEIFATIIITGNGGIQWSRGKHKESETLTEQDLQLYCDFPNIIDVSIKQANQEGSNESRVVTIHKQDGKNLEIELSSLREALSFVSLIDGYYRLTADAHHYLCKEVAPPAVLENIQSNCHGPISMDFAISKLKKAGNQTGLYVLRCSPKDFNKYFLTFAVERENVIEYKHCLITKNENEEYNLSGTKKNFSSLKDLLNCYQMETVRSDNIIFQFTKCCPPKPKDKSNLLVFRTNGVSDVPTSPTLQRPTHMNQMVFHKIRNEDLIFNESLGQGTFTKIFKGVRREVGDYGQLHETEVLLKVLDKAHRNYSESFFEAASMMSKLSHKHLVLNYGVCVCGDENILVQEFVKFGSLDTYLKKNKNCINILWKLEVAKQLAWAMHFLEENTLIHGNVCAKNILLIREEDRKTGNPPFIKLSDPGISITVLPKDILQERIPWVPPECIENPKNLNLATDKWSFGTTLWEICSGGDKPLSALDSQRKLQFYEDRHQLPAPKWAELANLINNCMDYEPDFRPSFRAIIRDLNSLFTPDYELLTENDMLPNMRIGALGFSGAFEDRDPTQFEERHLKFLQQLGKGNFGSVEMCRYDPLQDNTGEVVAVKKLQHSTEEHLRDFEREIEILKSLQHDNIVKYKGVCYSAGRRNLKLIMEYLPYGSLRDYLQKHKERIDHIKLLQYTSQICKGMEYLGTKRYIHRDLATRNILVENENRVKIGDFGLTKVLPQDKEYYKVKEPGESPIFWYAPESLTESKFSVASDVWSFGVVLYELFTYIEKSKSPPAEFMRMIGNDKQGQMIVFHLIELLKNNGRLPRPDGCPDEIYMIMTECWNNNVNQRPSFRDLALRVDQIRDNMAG
Chain of TYK2 (P29597 whole entry): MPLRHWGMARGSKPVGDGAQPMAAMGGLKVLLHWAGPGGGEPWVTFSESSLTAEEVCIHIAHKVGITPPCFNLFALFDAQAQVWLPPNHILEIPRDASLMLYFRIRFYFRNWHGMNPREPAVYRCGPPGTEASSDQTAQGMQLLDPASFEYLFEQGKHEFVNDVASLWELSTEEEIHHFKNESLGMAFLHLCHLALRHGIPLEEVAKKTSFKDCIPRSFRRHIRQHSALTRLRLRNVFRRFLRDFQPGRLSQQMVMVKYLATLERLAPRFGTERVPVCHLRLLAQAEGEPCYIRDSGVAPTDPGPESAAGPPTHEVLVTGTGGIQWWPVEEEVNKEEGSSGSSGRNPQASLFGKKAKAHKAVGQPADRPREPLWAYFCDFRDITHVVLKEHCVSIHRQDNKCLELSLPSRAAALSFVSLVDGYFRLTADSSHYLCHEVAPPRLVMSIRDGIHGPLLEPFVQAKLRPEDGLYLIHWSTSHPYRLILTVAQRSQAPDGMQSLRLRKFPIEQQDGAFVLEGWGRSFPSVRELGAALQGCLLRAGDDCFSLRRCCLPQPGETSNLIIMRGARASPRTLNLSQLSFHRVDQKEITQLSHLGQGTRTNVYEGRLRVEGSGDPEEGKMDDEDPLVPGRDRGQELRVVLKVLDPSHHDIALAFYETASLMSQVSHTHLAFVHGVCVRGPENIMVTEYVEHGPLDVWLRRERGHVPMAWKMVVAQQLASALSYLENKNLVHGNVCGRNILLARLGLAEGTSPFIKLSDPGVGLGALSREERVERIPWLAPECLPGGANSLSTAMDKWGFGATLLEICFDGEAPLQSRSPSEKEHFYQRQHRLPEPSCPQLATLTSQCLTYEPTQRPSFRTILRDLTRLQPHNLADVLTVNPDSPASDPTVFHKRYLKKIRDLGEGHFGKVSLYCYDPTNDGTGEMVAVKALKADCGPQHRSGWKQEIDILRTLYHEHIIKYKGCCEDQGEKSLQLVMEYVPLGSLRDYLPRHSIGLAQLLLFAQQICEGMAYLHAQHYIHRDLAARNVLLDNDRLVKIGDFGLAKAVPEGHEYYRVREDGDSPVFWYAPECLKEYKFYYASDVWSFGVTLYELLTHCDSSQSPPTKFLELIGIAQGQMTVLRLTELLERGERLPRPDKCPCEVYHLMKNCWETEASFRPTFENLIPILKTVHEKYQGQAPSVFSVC

Compound	IC50 (JAK1) [nM]	IC50 (JAK2) [nM]	IC50 (JAK3) [nM]	IC50 (TYK2) [nM]	IC50 [1] [nM]
Cc1cc(Nc2nc(N[C@@H]3C[C@H]4CC[C@@H](C3)N4CCC#N)nc3ccccc23)n[nH]1 [Embodiment 4, 3-((3-exo)-3-((4-((5-methyl-1H-pyrazol-3-yl)amino)quinazolin-2-yl)amino)-8-azabicyclo[3.2.1]oct-8-yl)propionitrile]	0.86	0.55	5.72	0.68	2.6
Cc1cc(Nc2cc3ncccc3c(N[C@@H]3C[C@@H]4CN(CCC#N)C[C@@H]4C3)n2)n[nH]1 [Embodiment 5, 3-(cis-5-((7-((5-methyl-1H-pyrazol-3-yl)amino)-1,6-diazanaphthalen-5-yl)amino)hexahydrocyclopentadieno[c]pyrrole-2(1H)-yl)propionitrile]	0.85	1.39	26.5	4.44	4.12
Cc1cc(Nc2nc(N[C@@H]3C[C@H]4CC[C@@H](C3)N4CCC#N)nc3cc[nH]c23)n[nH]1 [Embodiment 40, 3-((3-exo)-3-((4-((5-methyl-1H-pyrazol-3-yl)amino)-5H-pyrrolo[3,2-d]pyrimidin-2-yl)amino)-8-azabicyclo[3.2.1]oct-8-yl)pronionitrile]	0.83	0.77	8.78	1.01	17.4
CN(c1nc(Nc2cc(CO)[nH]n2)c2ccsc2n1)[C@@H]1C[C@H]2CCC[C@@H](C1)N2S(=O)(=O)N1CC(C#N)C1 [Embodiment 132, 1-(((3-exo)-3-((4-((5-(hydroxymethyl)-1H-pyrazol-3-yl)amino)thieno[2,3-d]pyrimidin-2-yl)(methyl)amino)-9-azabicyclo[3.3.1]non-9-yl)sulfonyl)azetindin-3-formonitrile]	0.1	0.77	3.43	0.42	23.8
Cc1cc(Nc2nc(N[C@@H]3C[C@H]4CCC[C@@H](C3)N4S(=O)(=O)N3CC(C#N)C3)nc3ccccc23)n[nH]1 [Embodiment 217]	0.04	1.61	1.92	0.1	36.7
COc1ccc2c(Nc3cc(C)[nH]n3)nc(N(C)[C@@H]3C[C@H]4CC[C@@H](C3)N4S(=O)(=O)N3CC(C#N)C3)nc2c1 [Embodiment 218, 1-(((3-exo)-3-((7-methoxyl-4-((5-methyl-1H-pyrazol-3-yl)amino)quinazolin-2-yl)(methyl)amino)-8-azabicyclo[3.2.1]oct-8-yl)sulfonyl)azetindin-3-formonitrile]	0.27	1.05	19.6	0.4	61.5
COc1ccc2c(Nc3cc(C)[nH]n3)nc(N[C@@H]3C[C@H]4CCC[C@@H](C3)N4S(=O)(=O)N3CC(C#N)C3)nc2c1 [Embodiment 219, 1-(((3-exo)-3-((7-methoxyl-4-((5-methyl-1H-pyrazol-3-yl)amino)quinazolin-2-yl)amino)-9-azabicyclo[3.3.1]non-9-yl)sulfonyl)azetindin-3-formonitrile]	0.09	0.76	2.61	0.13	117
Cc1cc(Nc2nc(N(C)[C@@H]3C[C@H]4CCC[C@@H](C3)N4S(=O)(=O)N3CC(C#N)C3)nc3sccc23)n[nH]1 [Embodiment 239, 1-(((3-exo)-3-(methyl(4-((5-methyl-1H-pyrazol-3-yl)amino)thieno[2,3-d]pyrimidin-2-yl)amino)-9-azabicyclo[3.3.1]non-9-yl)sulfonyl)azacyclobutane-3-nitrile]	0.13	1.25	3.11	0.22	39
Cc1cc(Nc2nc(N(C)[C@@H]3C[C@H]4CC[C@@H](C3)N4S(=O)(=O)N3CC(C#N)C3)nc3sccc23)n[nH]1 [Embodiment 241, 1-(((3-exo)-3-(methyl(4-((5-methyl-1H-pyrazol-3-yl)amino)thieno[2,3-d]pyrimidin-2-yl)amino)-8-azabicyclo[3.2.1]oct-8-yl)sulfonyl)azetindin-3-formonitrile]	0.15	1.39	7.35	0.22	115
Cc1cc(Nc2nc(N[C@@H]3C[C@H]4CCC[C@@H](C3)N4C(=O)CN(C)C)nc3sccc23)n[nH]1 [Embodiment 242, 2-(dimethylamine)-1-((3-exo)-3-((4-((5-methyl-1H-pyrazol-3-yl)amino)thieno[2,3-d]pyrimidin-2-yl)amino)-9-azabicyclo[3.3.1]non-9-yl)ethane-1-one]	0.21	0.85	6.58	0.89	0.24
Cc1cc(Nc2nc(N[C@@H]3C[C@H]4CC[C@@H](C3)N4C(=O)CN(C)C)nc3sccc23)n[nH]1 [Embodiment 243, 2-(dimethylamine)-1-((3-exo)-3-((4-((5-methyl-1H-pyrazol-3-yl)amino)thieno[2,3-d]pyrimidin-2-yl)amino)-8-azabicyclo[3.2.1]oct-8-yl)ethane-1-one]	0.53	2.42	148	1.48	0.24
Cc1cc(Nc2nc(N[C@@H]3C[C@H]4CC[C@@H](C3)N4S(=O)(=O)c3cccnc3)nc3sccc23)n[nH]1 [Embodiment 265, N^4-(5-methyl-1H-pyrazol-3-yl)-N^2-((3-exo)-8(pyridin-3ylsulfonyl)-8-azabicyclo[3.2.1]oct-3-yl)thieno[2,3-d]pyrimidin-2,4-diamine]	1.29	1.81	170	1	20.4
N#CCCN1[C@@H]2CC[C@H]1C[C@H](Nc1nc(Nc3cc(CO)[nH]n3)c3ccsc3n1)C2 [Embodiment 273]	1.28	2.96	> 200	2.19	41.9
